Here are results for 1 compound from patent US10213391B2, “Pharmaceutical compositions comprising hemp and turmeric to treat pain and inflammation” (priority 2014, dated 2019).

The test system of one test is pain. The test is described as follows: 7 volunteer pain relief study. The format is in vivo, human. The settings on record: for Relief: single agent: Curcumin 30 mg or Hemp CBD 20 mg, formulations contain magnesium. The text has this:
All of the above formulations contain magnesium. Patients received the combination of CBD and curcumin in the following formulation comprising: (a) hemp derived terpiniods and oil; (b) turmeric as curcumin and; (c) magnesium.

In test [1] the test system is Chronic constriction injury (CCI) in mice. The settings on record: p.o., twice per day for three weeks, cited from earlier work.
Where [2] appears, read: chronic, but not acute, treatment 5, 15 or 45 mg/kg.

Structures are written as SMILES.

Take `COc1cc(/C=C/C(=O)CC(=O)/C=C/c2ccc(O)c(OC)c2)ccc1O` [Curcumin, curcumin]: the Relief result is reported as “Partial relief” in the test with pain (Subject 1, (California), joint pain); “Partial relief” in the test on pain (Subject 2, (California), migraine); “Partial relief” in the test with pain (Subject 4, (Colorado), back pain); “Partial relief” in the test on pain (Subject 5, (California), back pain). Further, in the test on pain (summary of the 7 volunteer study, patients taking the agents singly), the pain relief result is on record as “partial pain relief”. Moreover, the “spinal monoamine (or metabolite) contents” value in test [1] (chronic treatment 5, 15 or 45 mg/kg) was “increasing”. Further, the “mechanical allodynia (von Frey hair)” value in test [1] (setting [2]) is “alleviated”. The “thermal hyperalgesia (hot plate test)” value in test [1] (setting [2]) is “alleviated”.
